Data: paper PMC6403188, “Species-Specific Structural Requirements of Alpha-Branched Trehalose Diester Mincle Agonists” (Frontiers in Immunology, 2019)

Assays:
primary human PBMCs = assay: Cytokine production from primary human PBMCs (multiplex); format: cell-based; conditions: plate-coated compound, 24 h, 5 individual donors
Excerpt: PBMCs were obtained via leukapheresis from normal donors (AllCells, Berkeley, CA) or fresh blood was obtained from health human donors through a University of Montana Institutional Review Board (IRB) approved protocol. PBMCs obtained via leukapheresis were washed in 1x PBS and cryopreserved in freezing media (50% RPMI, 40% FCS, 10% DMSO) for future use. PBMCs from on-site human donors were separated from whole blood via density gradient separation using Histopaque 1077 (Sigma). Cells were washed in RPMI media containing 10% heat inactivated FBS, penicillin/streptomycin/glutamine (complete media) and resuspended at the desired cell concentration in complete media. Cells were treated with the indicated compound concentrations by addition to plates coated with a serial dilution of the stock compound in diluent (50% isopropanol/50% isooctane, fully evaporated).
(§1) Supernatants were harvested from treated cells following 18–24 h of incubation. Supernatants were analyzed using a DuoSet TNFα ELISA (R&D Systems, Minneapolis, MN) or Luminex multiplex panel for analytes TNFα, IL-1β, IL-6, IFNγ, IL-12p70, and IL-23 (R&D Systems) per the manufacturer's instructions. Multiplex analysis was performed using a Luminex 200 instrument (Luminex Corporation) and analyzed with StarStation2.3 software. ELISAs were read on a plate reader at 450 nm and cytokine concentration was calculated by fitting the standard curve OD values to a 4-parameter logistical model using curve fitting software (XLfit, IDBS, Alameda, CA).
To determine if the abridged cytokine repertoire induced by the compounds from the cell lines was a cell-specific or compound-specific phenomenon, the response of a heterogeneous primary human PBMCs to the αTDE compound library was also evaluated. Primary human PBMCs were incubated with the αTDE compound and supernatants were evaluated by multiplex cytokine ELISA for TNFα, IL-1β, IL-23, IL-6 (Th17 associated) and IFNγ and IL-12p70 (Th1 associated). As with THP-1 cells, robust dose-responsive induction of TNFα and IL-1β was detected, but unlike the THP-1 cells dose-responsive stimulation of IL-6 and IL-23 production was also noted in response to a subset of the αTDE compounds (Figure 5). No production of the Th1-associated IFNγ or IL-12p70 were detected (data not shown). […] Consistent with the previous THP-1 cell responses, the longer chain length compounds, B32-B46, induced minimal cytokine responses only at the highest dose evaluated (Figure 5, right graphs).
Figure 5 Cytokine production from primary human mononuclear cells in response to stimulation with synthetic trehalose diester compounds. […] Cryopreserved PBMCs were thawed and applied to the compound-coated plates and incubated at 37°C; supernatant was harvested 24 h later and analyzed for TNFα, IL-1β, IL-23, IL-6. […]

human Mincle = target: T1, human Mincle (Homo sapiens, UniProt Q9ULY5); assay: HEK cells expressing human Mincle with NF-κB-driven SEAP reporter; format: cell-based; conditions: plate-coated compound, 24 h; for EC50: average calculated EC50, n = 3, read-out: hMincle EC50 (converted)
T1 construct: host or cells: HEK (HEK-Blue) cells with NF-κB-driven SEAP reporter
T1 sequence (Q9ULY5 1-219): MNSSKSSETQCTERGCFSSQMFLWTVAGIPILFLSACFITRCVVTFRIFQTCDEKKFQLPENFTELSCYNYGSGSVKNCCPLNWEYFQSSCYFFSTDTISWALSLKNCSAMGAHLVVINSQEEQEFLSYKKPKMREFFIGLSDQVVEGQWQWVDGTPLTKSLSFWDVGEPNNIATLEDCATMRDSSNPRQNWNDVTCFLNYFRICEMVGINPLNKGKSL
Procedure: (§2) Human and mouse Mincle expressing HEK cells were obtained from Invivogen (San Diego, CA). Cells were cultured according to the manufactures instructions in DMEM with 10% FBS, 50 U/ml penicillin, […] streptomycin, […] Normocin, 2 mM L-glutamine, 30 μg/ml blasticidin, 1 μg/ml puromycin and 1x HEK-Blue™ CLR Selection. For assay, indicated compounds were serially diluted in diluent (50%IPA/50% isooctane), 20 μl of a 10x final concentration were applied to the bottom of a 96-well tissue culture plate and the solvent was evaporated for >1 h in a biosafety hood. HEK cells were applied to the plates at a density of 3 × 10^5 cells/well and incubated for 18–24 h at 37°C. Cell supernatants were harvested and analyzed via the manufacturer's instructions using Hek-Blue^TM Detection. SEAP activity was assessed by reading the optical density (OD) at 620–655 nm with a microplate reader; data are expressed as the fold change in OD over vehicle treated cells.
(§3) To investigate the capacity of these molecules to bind to and activate the Mincle receptor, we used human embryonic kidney (HEK) cells expressing the human or mouse Mincle receptor along with an NF-κB-driven secreted embryonic alkaline phosphatase (SEAP) reporter. Many of the αTDE compounds were able to induce production of SEAP in a dose dependent manner (Figure 2). HEK null cells (HEK cells containing the NF-kB reporter without Mincle receptor) were used as a negative controls to confirm the receptor specificity of the compounds in HEK cells expressing human or mouse Mincle reporter (Supplemental Figure 4). […] The relative activity of TDM and TDB in the human and mouse HEK cells is consistent with the results reported by others ([20]). […] This synthetic version is a shorter chain version of the lipid-derived one reported to be “human-specific” ([28]).
(§4) Figure 2 Activation of human or mouse Mincle in response to synthetic αTDE compounds. The indicated compounds were dissolved in 50% isopropanol/isooctane, serially diluted in vehicle and then dried to the bottom of a tissue culture plate. HEK cells transfected with human (A–C) or mouse (D–F) Mincle and an NF-κB-driven SEAP reporter were incubated with the compounds for 24 h followed by assessment of the supernatants for SEAP levels. Data are represented as fold change in OD650 over vehicle treated cells. Graphs are mean values from three independent experiments ± SEM. Table in (G) represents the average calculated EC50 and average max SEAP value (± SD, n = 3) for each compound in each cell line. […]

mouse Mincle = target: T2, mouse Mincle (Mus musculus, UniProt Q9R0Q8); assay: HEK cells expressing mouse Mincle with NF-κB-driven SEAP reporter; format: cell-based; conditions: for EC50: average calculated EC50, n = 3, read-out: mMincle EC50 (converted); for EC50 / SEAP induction / activation of mouse Mincle-expressing HEK cells (in words): plate-coated compound, 24 h; for Relative activity in mouse vs. human Mincle HEK cells: comparison of mouse and human Mincle receptor transfected HEK cells
T2 construct: host or cells: HEK (HEK-Blue) cells with NF-κB-driven SEAP reporter
T2 sequence (Q9R0Q8 1-214): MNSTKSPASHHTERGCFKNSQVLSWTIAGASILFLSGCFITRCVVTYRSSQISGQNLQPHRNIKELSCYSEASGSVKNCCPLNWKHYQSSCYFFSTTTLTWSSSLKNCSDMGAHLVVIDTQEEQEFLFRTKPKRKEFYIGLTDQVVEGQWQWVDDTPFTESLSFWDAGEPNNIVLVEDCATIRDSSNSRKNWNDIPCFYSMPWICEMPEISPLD
Procedure: as §2, §3, §4

[1] = system: Hek Blue human or mouse Mincle-expressing cells; format: cell-based; conditions: top concentrations, 24 h; compared with vehicle only-treated cells
THP-1 cells = assay: TNFα production from THP-1 cells (ELISA); format: cell-based, human; conditions: plate-coated compound, 24 h
Procedure: as §1
Next, investigation into activity of the alpha-branched TDE compounds was extended to include both human and murine monocytic cell lines, THP-1 and RAW264.7, respectively. These cell lines have previously been reported as responsive to the Mincle receptor agonists TDM and TDB ([30], [31]).
Figure 3 TNFα production from human THP-1 cells in response to stimulation with synthetic αTDE compounds. The indicated compounds were dissolved in 50% isopropanol/isooctane, serially diluted in vehicle and then dried to the bottom of a tissue culture plate. THP-1 cells were applied to the compound-coated plates and incubated at 37°C; supernatant was harvested 24 h later and analyzed for TNFα via ELISA (A-E). Results from the 200 μg/ml concentration vs. each compounds acyl chain length are shown in (F). Data points are average of at least two independent experiments ± SD.

Structure (SMILES) | EC50 (human Mincle) [nM] | EC50 (mouse Mincle) [nM] | Cell viability of Mincle HEK cells [1] | other results
CC(C)C(=O)OC[C@H]1O[C@H](O[C@H]2O[C@H](COC(=O)C(C)C)[C@@H](O)[C@H](O)[C@H]2O)[C@H](O)[C@@H](O)[C@@H]1O [Compound B4] | – | – | – | Th17-associated cytokine production (TNFα, IL-1β, IL-6, IL-23) from human PBMCs (primary human PBMCs): mixed responses
CCCCCCCCCCCC(CCCCCCCCCCC)C(=O)OC[C@H]1O[C@H](O[C@H]2O[C@H](COC(=O)C(CCCCCCCCCCC)CCCCCCCCCCC)[C@@H](O)[C@H](O)[C@H]2O)[C@H](O)[C@@H](O)[C@@H]1O [Compound B24] | 92.6 | 608 | less substantial decreases | –
CCCCCCCCCCCCCCCC(CCCCCCCCCCCCCCC)C(=O)OC[C@H]1O[C@H](O[C@H]2O[C@H](COC(=O)C(CCCCCCCCCCCCCCC)CCCCCCCCCCCCCCC)[C@@H](O)[C@H](O)[C@H]2O)[C@H](O)[C@@H](O)[C@@H]1O [Compound B32] | 50.2 | 64.4 | – | –
CCCCCCC(CCCCCC)C(=O)OC[C@H]1O[C@H](O[C@H]2O[C@H](COC(=O)C(CCCCCC)CCCCCC)[C@@H](O)[C@H](O)[C@H]2O)[C@H](O)[C@@H](O)[C@@H]1O [Compound B14] | – | 1520 | less substantial decreases | –
CCCCCCCCCCCCCCCC(O)C(CCCCCCCCCCCCCC)C(=O)OC[C@H]1O[C@H](O[C@H]2O[C@H](COC(=O)C(CCCCCCCCCCCCCC)C(O)CCCCCCCCCCCCCCC)[C@@H](O)[C@H](O)[C@H]2O)[C@H](O)[C@@H](O)[C@@H]1O (stereo partly drawn) [sTDCM, synthetic trehalose dicorynomycolate, reference compound] | – | – | – | SEAP induction / activation of human Mincle-expressing HEK cells (in words) (human Mincle): robust ability to activate; Relative activity in mouse vs. human Mincle HEK cells (mouse Mincle): more potent in the mouse vs. the human; SEAP induction / activation of mouse Mincle-expressing HEK cells (in words) (mouse Mincle): robust ability to activate; TNFα induction from THP-1 cells (in words) (THP-1 cells): potent, robust induction of TNFα
CCCCCCCCC(CCCCCCCC)C(=O)OC[C@H]1O[C@H](O[C@H]2O[C@H](COC(=O)C(CCCCCCCC)CCCCCCCC)[C@@H](O)[C@H](O)[C@H]2O)[C@H](O)[C@@H](O)[C@@H]1O [Compound B18] | 405 | 599 | less substantial decreases | –
CCCCCCCCCCCCC(CCCCCCCCCCCC)C(=O)OC[C@H]1O[C@H](O[C@H]2O[C@H](COC(=O)C(CCCCCCCCCCCC)CCCCCCCCCCCC)[C@@H](O)[C@H](O)[C@H]2O)[C@H](O)[C@@H](O)[C@@H]1O [Compound B26] | 263 | 907 | – | TNFα induction from THP-1 cells (in words) (THP-1 cells): roughly equivalent levels of TNFα as B14/B16
CCCCCCCCCCCCCCCCCC(CCCCCCCCCCCCCCCCC)C(=O)OC[C@H]1O[C@H](O[C@H]2O[C@H](COC(=O)C(CCCCCCCCCCCCCCCCC)CCCCCCCCCCCCCCCCC)[C@@H](O)[C@H](O)[C@H]2O)[C@H](O)[C@@H](O)[C@@H]1O [Compound B36] | 21400 | 25800 | – | –
CCCCCCCCCCCCCC(CCCCCCCCCCCCC)C(=O)OC[C@H]1O[C@H](O[C@H]2O[C@H](COC(=O)C(CCCCCCCCCCCCC)CCCCCCCCCCCCC)[C@@H](O)[C@H](O)[C@H]2O)[C@H](O)[C@@H](O)[C@@H]1O [Compound B28] | 77.4 | 592 | – | –
CCCCCCCCCCCCCCC(CCCCCCCCCCCCCC)C(=O)OC[C@H]1O[C@H](O[C@H]2O[C@H](COC(=O)C(CCCCCCCCCCCCCC)CCCCCCCCCCCCCC)[C@@H](O)[C@H](O)[C@H]2O)[C@H](O)[C@@H](O)[C@@H]1O [Compound B30] | 43.8 | 955 | – | –
CCCCCCCCCC(CCCCCCCCC)C(=O)OC[C@H]1O[C@H](O[C@H]2O[C@H](COC(=O)C(CCCCCCCCC)CCCCCCCCC)[C@@H](O)[C@H](O)[C@H]2O)[C@H](O)[C@@H](O)[C@@H]1O [Compound B20] | 128 | 328 | less substantial decreases | –
CCCCCC(CCCCC)C(=O)OC[C@H]1O[C@H](O[C@H]2O[C@H](COC(=O)C(CCCCC)CCCCC)[C@@H](O)[C@H](O)[C@H]2O)[C@H](O)[C@@H](O)[C@@H]1O [Compound B12] | – | 1260 | marked decreases in viability | –
CCCCCCCCCCC(CCCCCCCCCC)C(=O)OC[C@H]1O[C@H](O[C@H]2O[C@H](COC(=O)C(CCCCCCCCCC)CCCCCCCCCC)[C@@H](O)[C@H](O)[C@H]2O)[C@H](O)[C@@H](O)[C@@H]1O [Compound B22] | 322 | 689 | less substantial decreases | –
CCCCCCCCCCCCCCCC(O)C(CCCCCCCCCCCCCC)C(=O)OCC(O)CO (stereo not drawn) [MMG, synthetic glycerol monomycolate, reference compound] | – | – | – | SEAP induction / activation of human Mincle-expressing HEK cells (in words) (human Mincle): able to activate; Relative activity in mouse vs. human Mincle HEK cells (mouse Mincle): more potent in mouse Mincle HEK cells; SEAP induction / activation of mouse Mincle-expressing HEK cells (in words) (mouse Mincle): able to activate; TNFα induction from THP-1 cells (in words) (THP-1 cells): potent, robust induction of TNFα
